# Reference: patent publication US9226929B2, “Pharmaceutically active disubstituted triazine derivatives” (Bayer Intellectual Property GMBH, priority 2011, dated 2016)
# pIC50: −log10 of the molar value.
# Tested on: cellular CDK9 activity (RNA Polymerase II Ser2 phosphorylation)
# Assay: RNA-Polymerase II Ser2 Cellular Phosphorylation Assay
# Assay type: cell-based
# Details: Homo sapiens; HCT-116 cells, normalized with tubulin; read-out: RNA Polymerase II Ser2 Phosphorylation (activity range), IC50
# Method: 3.1 RNA-Polymerase II Ser2 Cellular Phosphorylation Assay:
# HCT-116 cells (DSMZ, Braunschweig, Germany) were maintained in Mc Coy's cell culture medium+glutamine (PAN Biotech GmbH, Aidenbach, Germany) supplemented with 10% fetal calf serum (PAA Laboratories GmbH, Pasching, Austria) and grown at 37° C., 5% CO2. For the cellular phosphorylation assay, cells were seeded with 2×10^5 cells/well/1 ml in 24-well plates (Greiner Bio One, Frickenhausen, Germany; catalog #662160). The compounds of general formula (I) summarized in Table 6 were diluted from a 10 mM DMSO stock solution 1:10 in a total volume of 15 μL DMSO. After overnight incubation at 37° C./5% CO2, 1.5 μL of a compound diluted in DMSO was added to each sample well. Wells with cells and 0.15% DMSO in culture medium were used as positive controls, wells without cells and 0.15% DMSO in culture medium were used as negative controls. […] Phosphorylation of RNA Polymerase II Ser2 and tubulin levels for normalization were analyzed afterwards with the Multi-Array technology (Meso Scale Discovery, Gaithersburg, Md., USA), a combination of antibody coupled electrochemiluminescence detection and patterned arrays. […] Finally, plates were washed three times with Tris Wash Buffer, 150 μl 2× Read Buffer (Meso Scale Discovery) were added per well and plates were analyzed immediately in a Sector Imager from Meso Scale Discovery. […]
smiles,measurement,value
"NS(=O)(=O)Cc1cccc(Nc2ncnc(N3CCc4ncccc4C3)n2)c1 [Compound B38, 3-[(4-(7,8-Dihydro-1,6-naphthyridin-6(5H)-yl)-1,3,5-triazin-2-yl)amino]-benzenemethanesulfonamide]",pIC50,< 5.00
